Literature values as cited in patent US12201639B2, “Aqueous oral pharmaceutical suspension compositions” (ReveraGen BioPharma, Inc., priority 2019, dated 2025).

Tests used:
glucocorticoid receptor = biological target: T1, glucocorticoid receptor (Homo sapiens, UniProt P04150); details: pre-clinical data
T1 sequence (P04150 1-777): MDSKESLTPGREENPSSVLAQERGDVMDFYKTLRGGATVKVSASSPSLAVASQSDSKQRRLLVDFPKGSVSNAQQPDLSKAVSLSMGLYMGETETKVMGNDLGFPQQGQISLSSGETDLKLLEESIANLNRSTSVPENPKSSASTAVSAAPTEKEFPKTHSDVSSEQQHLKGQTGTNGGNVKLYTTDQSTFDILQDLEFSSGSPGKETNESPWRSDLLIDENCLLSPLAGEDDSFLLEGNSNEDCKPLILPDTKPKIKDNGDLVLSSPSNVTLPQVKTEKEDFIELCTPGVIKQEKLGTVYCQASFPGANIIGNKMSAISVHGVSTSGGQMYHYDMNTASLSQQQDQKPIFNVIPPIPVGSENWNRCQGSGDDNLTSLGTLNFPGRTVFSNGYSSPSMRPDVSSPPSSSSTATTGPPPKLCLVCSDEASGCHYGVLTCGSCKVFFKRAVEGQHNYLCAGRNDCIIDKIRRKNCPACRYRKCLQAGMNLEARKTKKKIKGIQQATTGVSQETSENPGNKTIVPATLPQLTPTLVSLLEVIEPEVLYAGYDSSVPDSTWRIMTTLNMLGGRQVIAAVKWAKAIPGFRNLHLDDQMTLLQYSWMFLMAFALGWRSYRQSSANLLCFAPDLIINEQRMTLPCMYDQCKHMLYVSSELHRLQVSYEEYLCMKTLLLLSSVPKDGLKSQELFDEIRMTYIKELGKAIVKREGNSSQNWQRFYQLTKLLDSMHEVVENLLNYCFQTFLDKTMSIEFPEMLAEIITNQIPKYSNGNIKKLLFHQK

[1] = test system: mouse models of inflammatory states; details: compared with prednisolone

SMILES: C[C@@H]1C[C@H]2[C@@H]3CCC4=CC(=O)C=C[C@]4(C)C3=CC[C@]2(C)[C@@]1(O)C(=O)CO [vamorolone, 17α,21-dihydroxy-16α-methylpregna-1,4,9 (11)-triene-3,20-dione]
- binding to the glucocorticoid receptor (glucocorticoid receptor): binds potently
- side effect profiles (growth stunting, bone fragility) in mouse models [1]: dramatically improves side effect profiles
